The structures appear in SMILES notation. Where only a bound is given, the exact number is not on record here.

One experiment deals with 11235 (donor line of iPSC-derived cardiomyocytes). Description: POD (EC95) for loss of peak frequency (asystole) vs vehicle; higher = less potent (higher point of departure). The following applies: exposure time: 90 min. How it is done: (§1)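 Human iPSC-derived cardiomyocytes from 16 donors were exposed for 90 min at 37 °C to each PFAS at 0.1, 1, 10 and 100 µM in 0.5% DMSO, 384-well plates. Kinetic Ca2+ flux (FLIPR) and Hoechst nuclei counts were normalised to vehicle wells and fitted with a hierarchical Bayesian Hill model to give donor-specific PODs: EC05 for beat-rate increase or decrease and for decay-to-rise ratio increase (QT proxy), EC95 for peak-frequency loss (asystole), EC10 for total cell number loss. 0.03 µM is the lower bound.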
As to `NC(=O)C(F)(F)C(F)(F)C(F)(F)C(F)F`, the POD vs vehicle is greater than 100 µM.
As to `OCC(O)CC(F)(F)C(F)(F)C(F)(F)C(F)(F)C(F)(F)C(F)(F)C(F)(F)C(F)(F)F` (stereo not given) [1-(Perfluorofluorooctyl)propane-2,3-diol], the POD vs vehicle was greater than 100 µM.
As to `CC(O)C(F)(F)C(F)(F)F` (stereo not given) [1-Pentafluoroethylethanol], the POD vs vehicle was greater than 100 µM.
Still for that read-out and setting: to `OCC(F)(F)C(F)(F)C(F)(F)C(F)F` [1H,1H,5H-Perfluoropentanol] belongs greater than 100 µM; to `O=S(=O)(OCC(F)(F)F)C(F)(F)C(F)(F)C(F)(F)C(F)(F)F` [2,2,2-Trifluoroethyl_perfluorobutanesulfonate], greater than 100 µM; to `O=C(O)C(F)(F)C(F)(F)C(F)F` [2,2,3,3,4,4-Hexafluorobutanoic_acid], greater than 100 µM.
Same read-out and setting: to `NC(O)(C(F)(F)F)C(F)(F)F` [2-Aminohexafluoropropan-2-ol] belongs 72.8 µM; to `O=C(O)CCC(F)(F)C(F)(F)C(F)(F)C(F)(F)C(F)(F)F` [2H,2H,3H,3H-Perfluorooctanoic_acid], 59.9 µM; to `O=C(O)C=C(C(F)(F)F)C(F)(F)F` [3,3-Bis(trifluoromethyl)-2-propenoic_acid], greater than 100 µM.
Still for that read-out and setting: to `O=C(O)C=CC(F)(C(F)(F)F)C(F)(F)F` [3-(Perfluoroisopropyl)-2-propenoic_acid] belongs greater than 100 µM.
For `O=C(O)CCC(F)(F)C(F)(F)C(F)(F)C(F)(F)C(F)(F)C(F)(F)C(F)(F)F` [3-Perfluoroheptylpropanoic_acid], the POD vs vehicle stood at 84.8 µM.
The same measure, in the same setting: to `O=C(O)CCC(F)(F)C(F)(F)C(F)(F)F` [3:3 Fluorotelomer carboxylic acid] belongs greater than 100 µM.
Same read-out and setting: to `O=C(CC(=O)C(F)(F)C(F)(F)F)C(F)(F)F` [3H,3H-Perfluoro-2,4-hexanedione] belongs 87.4 µM; to `OCCC(F)(F)C(F)(F)C(F)(F)C(F)(F)F` [4:2 Fluorotelomer alcohol], greater than 100 µM.
On the same count and under the same terms, to `O=S(=O)(O)CCC(F)(F)C(F)(F)C(F)(F)C(F)(F)F` [4:2 Fluorotelomer sulfonic acid] belongs greater than 100 µM.
`OCC(F)(F)C(F)(F)C(F)(F)C(F)(F)C(F)(F)C(F)(F)F` [6:1 Fluorotelomer alcohol] had a POD vs vehicle of 70.2 µM.
On the same count and under the same terms, to `OCCC(F)(F)C(F)(F)C(F)(F)C(F)(F)C(F)(F)C(F)(F)F` [6:2 Fluorotelomer alcohol] belongs greater than 100 µM; to `O=S(=O)(O)CCC(F)(F)C(F)(F)C(F)(F)C(F)(F)C(F)(F)C(F)(F)F` [6:2 Fluorotelomer sulfonic acid], greater than 100 µM; to `OCCC(F)(F)C(F)(F)C(F)(F)C(F)(F)C(F)(F)C(F)(F)C(F)(F)C(F)(F)F` [8:2 Fluorotelomer alcohol], greater than 100 µM.
`CN(CCO)S(=O)(=O)C(F)(F)C(F)(F)C(F)(F)C(F)(F)C(F)(F)C(F)(F)C(F)(F)C(F)(F)F` [N-Methyl-N-(2-hydroxyethyl)perfluorooctanesulfonamide] yielded a POD vs vehicle greater than 100 µM.

In the next experiment the test system is 1531 (donor line of iPSC-derived cardiomyocytes). The description is as above. The following applies: exposure time: 90 min. How it is done: as §1
As to `NC(=O)C(F)(F)C(F)(F)C(F)(F)C(F)F`, the POD vs vehicle was greater than 100 µM.
Same read-out and setting: to `OCC(O)CC(F)(F)C(F)(F)C(F)(F)C(F)(F)C(F)(F)C(F)(F)C(F)(F)C(F)(F)F` (stereo not given) [1-(Perfluorofluorooctyl)propane-2,3-diol] belongs greater than 100 µM.
Still for that read-out and setting: to `CC(O)C(F)(F)C(F)(F)F` (stereo not given) [1-Pentafluoroethylethanol] belongs greater than 100 µM.
The same measure, in the same setting: to `OCC(F)(F)C(F)(F)C(F)(F)C(F)F` [1H,1H,5H-Perfluoropentanol] belongs greater than 100 µM; to `O=S(=O)(OCC(F)(F)F)C(F)(F)C(F)(F)C(F)(F)C(F)(F)F` [2,2,2-Trifluoroethyl_perfluorobutanesulfonate], greater than 100 µM.
As for `O=C(O)C(F)(F)C(F)(F)C(F)F` [2,2,3,3,4,4-Hexafluorobutanoic_acid], the POD vs vehicle is greater than 100 µM.
Same read-out and setting: to `NC(O)(C(F)(F)F)C(F)(F)F` [2-Aminohexafluoropropan-2-ol] belongs greater than 100 µM.
Regarding `O=C(O)CCC(F)(F)C(F)(F)C(F)(F)C(F)(F)C(F)(F)F` [2H,2H,3H,3H-Perfluorooctanoic_acid], the POD vs vehicle came to 92.7 µM.
Still for that read-out and setting: to `O=C(O)C=C(C(F)(F)F)C(F)(F)F` [3,3-Bis(trifluoromethyl)-2-propenoic_acid] belongs greater than 100 µM; to `O=C(O)C=CC(F)(C(F)(F)F)C(F)(F)F` [3-(Perfluoroisopropyl)-2-propenoic_acid], greater than 100 µM; to `O=C(O)CCC(F)(F)C(F)(F)C(F)(F)C(F)(F)C(F)(F)C(F)(F)C(F)(F)F` [3-Perfluoroheptylpropanoic_acid], greater than 100 µM.
The same measure, in the same setting: to `O=C(O)CCC(F)(F)C(F)(F)C(F)(F)F` [3:3 Fluorotelomer carboxylic acid] belongs greater than 100 µM.
Same read-out and setting: to `O=C(CC(=O)C(F)(F)C(F)(F)F)C(F)(F)F` [3H,3H-Perfluoro-2,4-hexanedione] belongs greater than 100 µM.
Take `OCCC(F)(F)C(F)(F)C(F)(F)C(F)(F)F` [4:2 Fluorotelomer alcohol]: the POD vs vehicle was greater than 100 µM.
Still for that read-out and setting: to `O=S(=O)(O)CCC(F)(F)C(F)(F)C(F)(F)C(F)(F)F` [4:2 Fluorotelomer sulfonic acid] belongs greater than 100 µM; to `OCC(F)(F)C(F)(F)C(F)(F)C(F)(F)C(F)(F)C(F)(F)F` [6:1 Fluorotelomer alcohol], greater than 100 µM.
Still for that read-out and setting: to `OCCC(F)(F)C(F)(F)C(F)(F)C(F)(F)C(F)(F)C(F)(F)F` [6:2 Fluorotelomer alcohol] belongs greater than 100 µM.
The same measure, in the same setting: to `O=S(=O)(O)CCC(F)(F)C(F)(F)C(F)(F)C(F)(F)C(F)(F)C(F)(F)F` [6:2 Fluorotelomer sulfonic acid] belongs greater than 100 µM; to `OCCC(F)(F)C(F)(F)C(F)(F)C(F)(F)C(F)(F)C(F)(F)C(F)(F)C(F)(F)F` [8:2 Fluorotelomer alcohol], greater than 100 µM; to `CN(CCO)S(=O)(=O)C(F)(F)C(F)(F)C(F)(F)C(F)(F)C(F)(F)C(F)(F)C(F)(F)C(F)(F)F` [N-Methyl-N-(2-hydroxyethyl)perfluorooctanesulfonamide], greater than 100 µM.

The subject of a further experiment is 1434 (donor line of iPSC-derived cardiomyocytes). The description is as above. The following applies: exposure time: 90 min. How it is done: as §1
As for `NC(=O)C(F)(F)C(F)(F)C(F)(F)C(F)F`, the POD vs vehicle was greater than 100 µM.
The molecule `OCC(O)CC(F)(F)C(F)(F)C(F)(F)C(F)(F)C(F)(F)C(F)(F)C(F)(F)C(F)(F)F` (stereo not given) [1-(Perfluorofluorooctyl)propane-2,3-diol] returned a POD vs vehicle greater than 100 µM.
As for `CC(O)C(F)(F)C(F)(F)F` (stereo not given) [1-Pentafluoroethylethanol], the POD vs vehicle was greater than 100 µM.
Same read-out and setting: to `OCC(F)(F)C(F)(F)C(F)(F)C(F)F` [1H,1H,5H-Perfluoropentanol] belongs greater than 100 µM.
Same read-out and setting: to `O=S(=O)(OCC(F)(F)F)C(F)(F)C(F)(F)C(F)(F)C(F)(F)F` [2,2,2-Trifluoroethyl_perfluorobutanesulfonate] belongs greater than 100 µM.
Same read-out and setting: to `O=C(O)C(F)(F)C(F)(F)C(F)F` [2,2,3,3,4,4-Hexafluorobutanoic_acid] belongs greater than 100 µM; to `NC(O)(C(F)(F)F)C(F)(F)F` [2-Aminohexafluoropropan-2-ol], greater than 100 µM.
The molecule `O=C(O)CCC(F)(F)C(F)(F)C(F)(F)C(F)(F)C(F)(F)F` [2H,2H,3H,3H-Perfluorooctanoic_acid] gave a POD vs vehicle of 90.8 µM.
Still for that read-out and setting: to `O=C(O)C=C(C(F)(F)F)C(F)(F)F` [3,3-Bis(trifluoromethyl)-2-propenoic_acid] belongs greater than 100 µM.
On the same count and under the same terms, to `O=C(O)C=CC(F)(C(F)(F)F)C(F)(F)F` [3-(Perfluoroisopropyl)-2-propenoic_acid] belongs greater than 100 µM.

The values above are taken from the supplement of paper PMC11368000.
